Experimental data taken from article PMC10336507 (Heliyon, 2023).

Target: M. SssI MTase (Spiroplasma monobiae, UniProt P15840)
Experiment: coupled fluorescence turn-off DNA methylation assay
Format: biochemical

Chain of M. SssI MTase (P15840 whole entry): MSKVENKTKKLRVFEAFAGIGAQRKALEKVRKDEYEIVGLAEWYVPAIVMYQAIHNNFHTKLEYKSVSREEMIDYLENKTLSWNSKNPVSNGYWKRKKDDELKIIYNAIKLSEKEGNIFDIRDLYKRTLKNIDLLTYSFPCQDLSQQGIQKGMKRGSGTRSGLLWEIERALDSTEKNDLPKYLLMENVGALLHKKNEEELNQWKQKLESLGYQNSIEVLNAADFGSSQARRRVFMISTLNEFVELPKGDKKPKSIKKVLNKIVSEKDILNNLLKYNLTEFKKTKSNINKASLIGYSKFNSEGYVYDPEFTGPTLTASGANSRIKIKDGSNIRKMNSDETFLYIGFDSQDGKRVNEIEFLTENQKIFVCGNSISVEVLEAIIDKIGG

SMILES: Nc1ncn([C@@H]2O[C@H](CO)[C@@H](O)[C@H]2O)c(=O)n1 [5-Aza, 5-Azacytidine]
- IC50: 3.76 µM
